This note sets out measurements from patent US8865623B2, “Herbicidally active cyclic diones and derivatives thereof, processes for their preparation, compositions, and method of controlling weeds” (Syngenta Limited, priority 2009, dated 2014).

Common to all, as to format: in vivo
The test system of assay [1] is Alopecurus myosuroides (ALOMY). Nature of the assay: Pre-emergence herbicidal activity, glasshouse pot test. Conditions: Alopecurus myosuroides, 312 h, Rate 250 g/ha, evaluated after 13 days, read-out: Pre-emergence activity ALOMY (100=total damage to plant; 0=no damage to plant). A digest of the protocol:
(§1)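 Visual damage (0 = no damage, 100 = total damage) was rated 13 days after spraying. Treatment was applied one day after sowing for pre-emergence, or after 8 days of cultivation for post-emergence, as aqueous spray of an acetone/water (50:50) formulation with 0.5% Tween 20.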

Assay [2] concerns Avena fatua (AVEFA). Described as above. Particulars: Avena fatua, 312 h, Rate 250 g/ha, evaluated after 13 days, read-out: Pre-emergence activity AVEFA (100=total damage to plant; 0=no damage to plant). In outline: as §1
The test system of assay [3] is Echinochloa crus-galli (ECHCG). Described as above. Particulars: Echinochloa crus-galli, 312 h, Rate 250 g/ha, evaluated after 13 days, read-out: Pre-emergence activity ECHCG (100=total damage to plant; 0=no damage to plant). A digest of the protocol: as §1
The subject of assay [4] is Lolium perenne (LOLPE). The assay is described as above. Particulars: Lolium perenne, 312 h, Rate 250 g/ha, evaluated after 13 days, read-out: Pre-emergence activity LOLPE (100=total damage to plant; 0=no damage to plant). A digest of the protocol: as §1
Assay [5] deals with Alopecurus myosuroides (ALOMY). The assay can be described thus: Post-emergence herbicidal activity, glasshouse pot test. Particulars: Alopecurus myosuroides, 312 h, rate 250 g/ha, evaluated after 13 days, read-out: Post-emergence activity ALOMY (100=total damage to plant; 0=no damage to plant). In outline:
as §1

Assay [6] relates to Avena fatua (AVEFA). The assay is described as above. Conditions: Avena fatua, 312 h, rate 250 g/ha, evaluated after 13 days, read-out: Post-emergence activity AVEFA (100=total damage to plant; 0=no damage to plant). In outline: as §1
The subject of assay [7] is Echinochloa crus-galli (ECHCG). Described as above. Particulars: Echinochloa crus-galli, 312 h, rate 250 g/ha, evaluated after 13 days, read-out: Post-emergence activity ECHCG (100=total damage to plant; 0=no damage to plant). In outline: as §1
For assay [8], the system named is Lolium perenne (LOLPE). Described as above. Conditions: Lolium perenne, 312 h, rate 250 g/ha, evaluated after 13 days, read-out: Post-emergence activity LOLPE (100=total damage to plant; 0=no damage to plant). In outline: as §1

On to `CCc1ccc(Oc2cnc3ccccc3n2)cc1C1=C(O)CC2(CCOCC2)CC1=O` [Example A-307], for which the pest or weed control at 250 g/ha in assay [1] (pre-emergence spray) stood at 100%; in assay [2] (pre-emergence spray) it was 70%; in assay [3] (pre-emergence spray), 100%; in assay [4] (pre-emergence spray), 90%; in assay [5] (glasshouse), 100%; in assay [6] (glasshouse), 100%. For the same compound, the pest or weed control at 250 g/ha in assay [7] (glasshouse) and in assay [8] (glasshouse) was 100% in each case.

Take `CCc1ccc(Oc2cnc3cc(Cl)ccc3n2)cc1C1=C(O)[C@H]2CC[C@H](C2)C1=O` [Example A-255]: the pest or weed control at 250 g/ha in assay [1] (pre-emergence spray), in assay [2] (pre-emergence spray), in assay [3] (pre-emergence spray), in assay [4] (pre-emergence spray), in assay [5] (glasshouse) and in assay [6] (glasshouse) was 100% in each case. In addition, the pest or weed control at 250 g/ha in assay [7] (glasshouse) and in assay [8] (glasshouse) was 100% in each case.

For `CCc1ccc(Oc2ncc(Cl)cc2F)cc1C1=C(O)CC(C)(C)CC1=O` [Example A-85], the pest or weed control at 250 g/ha came out at 100% in assay [1] (pre-emergence spray); 100% in assay [2] (pre-emergence spray); 100% in assay [3] (pre-emergence spray); 100% in assay [4] (pre-emergence spray); 100% in assay [5] (glasshouse); 90% in assay [6] (glasshouse). For the same compound, the pest or weed control at 250 g/ha was determined as 100% in assay [7] (glasshouse) and 90% in assay [8] (glasshouse).

As to `CCc1ccc(Oc2ncc(C(F)(F)F)cc2C(F)(F)F)cc1C1=C(O)CC2(CCOCC2)CC1=O` [Example A-269], the pest or weed control at 250 g/ha amounted to 100% in assay [1] (pre-emergence spray); 80% in assay [2] (pre-emergence spray); 100% in assay [3] (pre-emergence spray); 90% in assay [4] (pre-emergence spray); 90% in assay [5] (glasshouse); 90% in assay [6] (glasshouse). Besides, the pest or weed control at 250 g/ha was found to be 100% in assay [7] (glasshouse) and 70% in assay [8] (glasshouse).

For the compound `CCc1ccc(Oc2c(Cl)cc(C(F)(F)F)cc2Cl)cc1C1=C(O)C(C)(C)OC(C)(C)C1=O` [Example A-204], the pest or weed control at 250 g/ha in assay [1] (pre-emergence spray) was 0%; in assay [2] (pre-emergence spray), 0%; in assay [3] (pre-emergence spray), 20%; in assay [4] (pre-emergence spray) it was 10%; in assay [5] (glasshouse) it was 60%; in assay [6] (glasshouse) it was 50%. Besides, the pest or weed control at 250 g/ha in assay [7] (glasshouse) is 70%; in assay [8] (glasshouse), 40%.

Consider `CCc1ccc(Oc2nc3cccc(C#N)c3s2)cc1C1=C(O)C(C)(C)OC(C)(C)C1=O` [Example A-220], for which the pest or weed control at 250 g/ha in assay [1] (pre-emergence spray) came out at 10%; in assay [2] (pre-emergence spray) it was 0%; in assay [3] (pre-emergence spray), 30%; in assay [4] (pre-emergence spray), 10%; in assay [5] (glasshouse) it was 60%; in assay [6] (glasshouse), 30%. Besides, the pest or weed control at 250 g/ha in assay [7] (glasshouse) worked out at 100%; in assay [8] (glasshouse), 80%.

Take `CCc1ccc(Oc2nc3ccccc3s2)cc1C1=C(O)[C@H]2CC[C@H](C2)C1=O` [Example A-337]: the pest or weed control at 250 g/ha worked out at 90% in assay [1] (pre-emergence spray); 70% in assay [2] (pre-emergence spray); 100% in assay [3] (pre-emergence spray); 100% in assay [4] (pre-emergence spray); 90% in assay [5] (glasshouse); 90% in assay [6] (glasshouse). Moreover, the pest or weed control at 250 g/ha in assay [7] (glasshouse) was found to be 100%; in assay [8] (glasshouse), 90%.

For the compound `CCc1ccc(Oc2cccc(F)c2F)cc1C1=C(O)C(C)(C)OC(C)(C)C1=O` [Example A-16], the pest or weed control at 250 g/ha in assay [1] (pre-emergence spray) was determined as 0%; in assay [2] (pre-emergence spray), 0%; in assay [3] (pre-emergence spray) it was 100%; in assay [4] (pre-emergence spray), 0%; in assay [5] (glasshouse), 0%; in assay [6] (glasshouse), 0%. The figures for the pest or weed control at 250 g/ha in assay [7] (glasshouse) and in assay [8] (glasshouse) were 80% and 20%, respectively.

Turning to `CCc1ccc(Oc2ccc(Br)cc2C#N)cc1C1=C(O)C(C)(C)OC(C)(C)C1=O` [Example A-225], the pest or weed control at 250 g/ha in assay [1] (pre-emergence spray) stood at 0%; in assay [2] (pre-emergence spray), 0%; in assay [3] (pre-emergence spray), 60%; in assay [4] (pre-emergence spray), 10%; in assay [5] (glasshouse), 60%; in assay [6] (glasshouse), 50%. In addition, the figures for the pest or weed control at 250 g/ha in assay [7] (glasshouse) and in assay [8] (glasshouse) were 90% and 70%, respectively.

On to `CCc1ccc(Oc2ccc(F)cc2)cc1C1=C(O)C(C)(C)OC(C)(C)C1=O` [Example A-22], for which the pest or weed control at 250 g/ha is 20% in assay [1] (pre-emergence spray); 10% in assay [2] (pre-emergence spray); 80% in assay [3] (pre-emergence spray); 60% in assay [4] (pre-emergence spray); 20% in assay [5] (glasshouse); 30% in assay [6] (glasshouse). Besides, the pest or weed control at 250 g/ha amounted to 100% in assay [7] (glasshouse) and 30% in assay [8] (glasshouse).

Regarding `CCc1ccc(Oc2nc3c(Cl)cc(Cl)cc3s2)cc1C1=C(O)[C@H]2CC[C@H](C2)C1=O` [Example A-345], the pest or weed control at 250 g/ha in assay [1] (pre-emergence spray) was determined as 90%; in assay [2] (pre-emergence spray), 60%; in assay [3] (pre-emergence spray), 100%; in assay [4] (pre-emergence spray), 100%; in assay [5] (glasshouse), 80%; in assay [6] (glasshouse), 100%. The pest or weed control at 250 g/ha in assay [7] (glasshouse) and in assay [8] (glasshouse) was 100% in each case.

Take `CCc1ccc(Oc2cc(OC)c(Cl)nn2)cc1C1=C(O)C(C)(C)OC(C)(C)C1=O` [Example A-169]: the pest or weed control at 250 g/ha worked out at 20% in assay [1] (pre-emergence spray); 0% in assay [2] (pre-emergence spray); 30% in assay [3] (pre-emergence spray); 10% in assay [4] (pre-emergence spray); 20% in assay [5] (glasshouse); 30% in assay [6] (glasshouse). The pest or weed control at 250 g/ha in assay [7] (glasshouse) is 30%; in assay [8] (glasshouse), 20%.

On to `CCc1ccc(Oc2cc(Cl)ncn2)cc1C1=C(O)C(C)(C)OC(C)(C)C1=O` [Example A-98], for which the pest or weed control at 250 g/ha was determined as 40% in assay [1] (pre-emergence spray); 20% in assay [2] (pre-emergence spray); 80% in assay [3] (pre-emergence spray); 60% in assay [4] (pre-emergence spray); 70% in assay [5] (glasshouse); 60% in assay [6] (glasshouse). The values for the pest or weed control at 250 g/ha in assay [7] (glasshouse) and in assay [8] (glasshouse) were 100% and 30%, respectively.

As to `CCc1ccc(Oc2ccc3cc(Cl)ccc3n2)cc1C1=C(O)[C@H]2CC[C@H](C2)C1=O` [Example A-260], the pest or weed control at 250 g/ha is 80% in assay [1] (pre-emergence spray); 0% in assay [2] (pre-emergence spray); 90% in assay [3] (pre-emergence spray); 90% in assay [4] (pre-emergence spray); 90% in assay [5] (glasshouse); 100% in assay [6] (glasshouse). Further, the results for the pest or weed control at 250 g/ha in assay [7] (glasshouse) and in assay [8] (glasshouse) were 90% and 80%, respectively.

With `COc1ccc2nc(Oc3ccc(C4CC4)c(C4=C(O)C(C)(C)OC(C)(C)C4=O)c3)sc2c1` [Example A-374], the pest or weed control at 250 g/ha came to 50% in assay [1] (pre-emergence); 30% in assay [2] (pre-emergence); 90% in assay [3] (pre-emergence); 100% in assay [4] (pre-emergence); 90% in assay [5]; 90% in assay [6]. For the same compound, the pest or weed control at 250 g/ha in assay [7] and in assay [8] was 100% in each case.
